Measurements as given in PMC5929447 (Oncotarget, 2018).
Several values for one entry are separate records, joined by “and”; a condition that tells them apart may be missing. Equal entries are not always repeated. Where two headings read alike, the source gives them in different places.

Tests used:
[1] = system: isolated platelets from healthy volunteers; experiment: Apoptosis (annexin V) in isolated platelets; type: cell-based; conditions: Homo sapiens, Platelet; 4 healthy donors, 3 h; read-out: EC50 apoptosis (PS+) in isolated platelets
Protocol: (§1) Peripheral blood samples from CLL patients were obtained with informed patient consent and local ethical committee approval (UHL-09723). […] Interphase fluorescence in situ hybridization (FISH) was performed for detection of 17p13 deletion. Mantle cell lymphoma (MCL) primary cells were obtained after informed consent from MCL patients treated at the department of clinical hematology from the University Hospital of Nantes, France. Peripheral MCL cells from blood or pleural effusion, were purified after Ficoll-Hypaque separation with immuno-magnetic anti-CD19 beads (Miltenyi, Paris, France). Primary cells were cultured in RPMI-1640 supplemented with 10% FCS and 2 mM glutamine. Human platelets were isolated from citrate blood donated by healthy volunteers. Washed platelets were cultured in Hepes-buffered saline (HBS, 10 mM Hepes, 150 mM NaCl, 5 mM KCl, 1 mM MgSO4, pH 7.4).
EC50 values were calculated using GraphPadPrism (non-linear fit, sigmoidal dose response, variable slope). […] Cell death was assessed in the CD19+ primary MCL cells by annexinV-FITC staining combined with an analysis of altered cellular morphology (lower FCS). Fluorescence was analyzed on FACSCalibur.

BCL-XL/BAX complex = BCL-XL/BAX complex (Homo sapiens, UniProt Q07817); experiment: Co-immunoprecipitation in BCL-XL-overexpressing HeLa cells; conditions: 2 h
Protocol: Effecten reagent (Qiagen), with 3xFlag-tagged BCL-XL
24 h later, transfected Hela and RS4;11
were put under neomycin selection (800 µg/ml, Invitrogen) were then subjected to immunoprecipitation with anti-

[2] = system: primary Mantle Cell Lymphoma cells; experiment: Apoptosis (annexin V flow cytometry) in primary MCL cells; type: cell-based; conditions: Homo sapiens, 24 h
Protocol: as §1, with “7.4). […] EC50 values were calculated using GraphPadPrism (non-linear fit, sigmoidal dose response, variable slope). […] Cell death was assessed in the CD19+ primary MCL cells by annexinV-FITC staining combined with an analysis of altered cellular morphology (lower FCS). Fluorescence was analyzed on FACSCalibur.” for “7.4).”

BCL-2/BAX complex = BCL-2/BAX complex (Homo sapiens, UniProt P10415); experiment: Co-immunoprecipitation in BCL-2-overexpressing HeLa cells; type: cell-based; conditions: 2 h
[3] = system: BAX-deficient RS4;11 cells; experiment: Viability of RS4;11 cells transduced with shRNA BAX; type: cell-based; conditions: 72 h
BCL-2 = BCL-2 (Homo sapiens, UniProt P10415); experiment: Isothermal titration calorimetry (ITC), BCL-2; conditions: binding to BCL-2
Protocol: The protein was dialyzed prior to use in 2 L of 25 mM HEPES, 150 mM NaCl, 5% glycerol (v/v), 0.5% MTG (v/v) at pH 7.4 for 3 hours at room temperature. The protein was dialyzed using a 3.5 K MWCO Slide-A-Lyzer™ cassette. The protein solution was recovered, spin-filtered through a […] frit. The filtered protein was quantified by UV absorbance at 280 nm using an extinction coefficient of 36440 M^-1cm^-1. 500 ml of dialysis buffer was retained (remainder used to rinse out SCHOT bottle) and degassed for a minimum of 30 mins under vacuum with constant stirring. […] The solutions were carefully matched to ensure same solvent and buffer conditions were present in both syringe and cell (this is to minimize heat of dilution effects). The final solution was the dialysis buffer plus 1% DMSO and 0.05% P20. The experiment was performed over 13 injections with stirring at 1000 rpm, gain setting low and at 25° C. Pure water was used in the reference cell. The first injection was 0.5 μl with a duration of 1 second with a gap of 150 seconds until the further 12 injections of 3.05 μl with a duration 6.1 seconds and a 240 second interval between injections. Data was analyzed using the vendor supplied software, PEAQ-ITC Analysis Software. The data model used was the single site model. The data shown is the average of 2 or 3 independent experiments.

Toledo cells = experiment: CellTiter-Glo viability, Toledo; type: cell-based; conditions: Homo sapiens, 72 h
Protocol: (§2) Cells were seeded into 96-well plates and treated at 8 points with 1:2 serial dilution of compounds. Cell viability was assessed and assayed for viability using CellTiter-Glo reagent (Promega) following the manufacturer's instructions. Plates were read using Tecan luminescence plate reader. Results were normalized to the viability of cells without compounds (control wells). The IC50 values were calculated using nonlinear regression algorithms in XCell software.

[4] = system: BCL-2-dependent FL5.12 cells; experiment: Apoptosis (annexin V/PI) in FL5.12 cells expressing BCL-2 upon IL-3 withdrawal; type: cell-based, murine; conditions: 24 h upon IL-3 withdrawal
[5] = system: control RS4;11 cells (shRNA CT); experiment: Viability of RS4;11 cells transduced with shRNA CT (control); type: cell-based; conditions: Homo sapiens, 72 h
[6] = system: BCL-XL-dependent FL5.12 cells; experiment: Apoptosis (annexin V/PI) in FL5.12 cells expressing BCL-XL upon IL-3 withdrawal; conditions: 24 h upon IL-3 withdrawal
H146 cell line = experiment: CellTiter-Glo cell viability, H146; type: cell-based; conditions: Homo sapiens, NCI-H146; 72 h of treatment
Protocol: as §2

[7] = system: Mantle Cell Lymphoma cell lines; experiment: CellTiter-Glo viability, MCL cell line panel; type: cell-based; conditions: 72 h; two MCL cell lines out of five tested
Protocol: as §2

[8] = system: Diffuse Large B-Cell Lymphoma cell lines; experiment: CellTiter-Glo viability, DLBCL cell line panel; type: cell-based; conditions: 72 h, six out of eleven DLBCL cell lines tested
Protocol: as §2

MCL-1 = MCL-1 (Homo sapiens, UniProt Q07820); experiment: Fluorescence polarization (FP) with Fluorescein-PUMA, MCL-1; type: binding
RS4;11 cell line = experiment: CellTiter-Glo cell viability, RS4;11; type: cell-based; conditions: Homo sapiens, 72 h of treatment
Protocol: as §2

Chain of MCL-1 (Q07820 whole entry): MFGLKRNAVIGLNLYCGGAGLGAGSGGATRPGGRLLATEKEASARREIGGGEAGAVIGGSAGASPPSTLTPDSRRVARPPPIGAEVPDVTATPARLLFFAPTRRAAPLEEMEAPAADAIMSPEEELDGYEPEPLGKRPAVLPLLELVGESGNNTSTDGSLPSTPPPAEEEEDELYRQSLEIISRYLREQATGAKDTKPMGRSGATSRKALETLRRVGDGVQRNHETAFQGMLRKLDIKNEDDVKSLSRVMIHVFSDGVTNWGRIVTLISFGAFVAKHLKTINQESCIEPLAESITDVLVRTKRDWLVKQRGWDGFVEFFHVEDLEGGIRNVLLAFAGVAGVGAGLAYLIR
Chain of BCL-2 (P10415 whole entry): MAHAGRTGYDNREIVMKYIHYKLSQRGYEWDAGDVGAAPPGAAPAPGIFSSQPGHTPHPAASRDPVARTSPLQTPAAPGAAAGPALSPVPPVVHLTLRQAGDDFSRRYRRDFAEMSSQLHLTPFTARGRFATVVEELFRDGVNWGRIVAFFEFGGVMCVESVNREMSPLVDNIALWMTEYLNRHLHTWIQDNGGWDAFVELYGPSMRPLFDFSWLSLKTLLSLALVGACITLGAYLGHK
Chain of BCL-2/BAX complex (P10415 whole entry, one chain of several): as the sequence (P10415 whole entry) above
Chain of BCL-XL/BAX complex (Q07817 whole entry, one chain of several): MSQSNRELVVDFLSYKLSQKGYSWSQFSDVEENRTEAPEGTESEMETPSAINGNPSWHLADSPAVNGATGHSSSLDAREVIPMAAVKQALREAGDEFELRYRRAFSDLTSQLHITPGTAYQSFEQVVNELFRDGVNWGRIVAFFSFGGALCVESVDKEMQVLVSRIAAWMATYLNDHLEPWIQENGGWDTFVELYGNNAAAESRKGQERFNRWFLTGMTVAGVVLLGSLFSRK

EC50 ([2]; 8 patients, 24 h of treatment, read-out: EC50 apoptosis in primary MCL cells, range over patients): 2.5 to 110 nM
EC50 ([2]; read-out: EC50 S55746 primary MCL cells, patient MCL2, 24 h): 15 nM
EC50 ([2]; read-out: EC50 S55746 primary MCL cells, patient MCL3, 24 h): 12 nM
EC50 ([2]; read-out: EC50 S55746 primary MCL cells, patient MCL4, 24 h): 12 nM
EC50 ([2]; read-out: EC50 S55746 primary MCL cells, patient MCL5, 24 h): 5 nM
EC50 ([2]; read-out: EC50 S55746 primary MCL cells, patient MCL6, 24 h): 4 nM
EC50 ([2]; read-out: EC50 S55746 primary MCL cells, patient MCL7, 24 h): 3 nM
EC50 ([2]; read-out: EC50 S55746 primary MCL cells, patient MCL8, 24 h): 2.5 nM
effect on BCL-2/BAX complex in BCL-2-overexpressing HeLa cells (BCL-2/BAX complex): affects BCL-2/BAX complex
IC50 ([3]; Homo sapiens, RS4-11, shRNA BAX): 2700 nM
N (sites), stoichiometry (BCL-2): 1.1 sites
∆H (enthalpy delta) (BCL-2): –13.5 kcal/mol
IC50 [5]: 57 nM
IC50 (H146 cell line): 1700 nM
IC50 [7]: < 1000 nM
IC50 [8]: < 1000 nM
binding to MCL-1 (MCL-1; FP): No significant binding
FP_MCL-1, % of inhibition at the maximal tested concentration (MCL-1; at 30E-06 M): 4.3% and 4.5%
IC50 (RS4;11 cell line): 71.6 nM
Compound: O=C(c1cc(-c2cc3c(cc2C(=O)N2Cc4ccccc4C[C@H]2CN2CCOCC2)OCO3)n2c1CCCC2)N(c1ccccc1)c1ccc(O)cc1 [S55746]
EC50 [1]: > 3000 nM
effect on BCL-XL/BAX complex in BCL-XL-overexpressing HeLa cells (BCL-XL/BAX complex): without any significant effect on the BCL-XL/BAX complex
reduction of sensitivity of BAX-deficient versus control RS4;11 [3]: ≈ 50 fold
IC50 (Toledo cells): 401 nM
apoptosis induction (PS+ cells) in BCL-2-dependent FL5.12 cells [4]: strongly induce apoptosis
apoptosis induction (PS+ cells) in BCL-XL-dependent FL5.12 cells [6]: minor effect
